# Measurements: patent publication US11524948B2, “Prodrugs of alpha-ketoglutarate, alpha-ketobutyrate, alpha-ketoisovalerate, and alpha-ketoisohexanoate, and uses thereof” (The Regents of the University of California, priority 2018, dated 2022)
# “Also recorded” adds a separate entry of the source.
# Experiments:
# [1] = test system: AMPK signaling pathway; assay: Western blot of AMPK signaling in H9C2 rat cardiomyocytes; type: cell-based; details: H9C2 cells; for activation of AMPK signaling pathway (phosphorylation of AMPK targets ACC (S79) and ULK1 (S555)): western blot, FIGS. 2A, 2B; for activation of AMPK signaling pathway (phosphorylation of AMPK targets ACC (S79) and ULK1 (S555)) / time course of AMPK activation: 2F; for time course of AMPK activation: 15 min to 8 hr, FIGS. 2C, 2E; for activation of AMPK, dose-response: FIG. 2D
# Procedure: (§1) H9C2 rat cardiomyocyte cells were grown in DMEM media (ATCC #30-2002) supplemented with 10% FBS. Stock solutions of MJX series compounds were prepared in DMSO, while the stock solution of α-ketobutyrate was prepared in dH2O. Cells were seeded in the afternoon at 70-80% confluency and the next morning treated with the indicated concentrations of compounds for the indicated times. Cells were then washed with ice-cold PBS and immediately lysed on ice with RIPA buffer. Lysates were clarified at 18,000 g at 4° C., the supernatants transferred to new tubes, mixed with […] of 5×SDS-PAGE loading buffer, and heated for 10 minutes at 70° C. Lysates were then separated by SDS-PAGE using 4-12% Bis-Tris gels (Life Technologies) and transferred to PVDF membranes (Millipore) for western blotting analysis. All antibodies were purchased from Cell Signaling.
# [2] = test system: H9C2 Cells; assay: [U-13C6]glucose tracing of metabolites in H9C2 cells (LC-MS); type: cell-based, rat; details: 24 h, FIG. 4
# Procedure: To evaluate the metabolic pathways in use, H9C2 Cells were cultured with designated compounds and medium containing [U-^13C6]glucose for 24 h. Metabolites were extracted for LC-MS detection.
# [3] = test system: mTORC1; assay: Western blot of mTORC1 signaling in H9C2 rat cardiomyocytes; type: cell-based; details: H9C2 cells; for mTORC1 signaling (phosphorylation of mTORC1 targets S6K (T389), 4E-BP1 (S65), ULK1 (S757)): western blot, FIGS. 2A, 2B, 2C, 2F
# Procedure: as §1
# [4] = test system: Caenorhabditis elegans; assay: Lifespan of N2 wildtype C. elegans on NGM treatment plates containing compound; type: in vivo; parameters: mean lifespan: unit not given here; details: for % increase (mean lifespan): vs DMSO; for effect on C. elegans lifespan: FIGS. 1A-1C, result in words
# Procedure: The anti-aging effects of MJX001-MJX005 were tested in the nematode Caenorhabditis elegans. Worms of the N2 wildtype strain of C. elegans were age-synchronized by performing either a timed egg lay or an egg preparation (mix <100 gravid worms in 70 μl M9 buffer, 25 μl bleach and 5 μl 10 N NaOH). Once the worms reached day 1 of adulthood, they were picked onto NGM treatment plates containing 1.5% dimethyl sulfoxide (DMSO; Sigma D8418), 49.5 μM 5-fluoro-2′-deoxyuridine (FUDR, Sigma F0503), and either […] (Sigma K401) or one of the MJX series test compounds. All plates were adjusted to pH 6.0 (i.e., the same pH as the control plates) if necessary by the addition of NaOH. Once dry, the plates were seeded with OP50 E. coli as the C. elegans food source. […] Worms were moved to new plates every 4 days. All worms were maintained in a single humidified, temperature-controlled incubator at 20° C. Lifespan curves were generated and statistical analyses performed.
# [5] = test system: C57BL/6 mice; assay: Hair regrowth in shaved C57BL/6 mice, topical application; type: in vivo, mouse
# Procedure: The effects of the compounds on mouse models were evaluated. […] Mouse dorsal hair was shaved by trimmer on week 7 and MJX002 was dissolved in Transdermal Gel at 16 mM and applied on the dorsal skin every other day. Mice were monitored for the appearance of skin pigmentation, which signals the initiation of anagen. […] (FIG. 7)
# [6] = test system: mTORC2; assay: Western blot of mTORC2 signaling in H9C2 rat cardiomyocytes; type: cell-based; details: H9C2 cells, FIGS. 2C; for mTORC2 activity (phosphorylation of Akt (S473)): 2F; for time course of inhibition of mTORC2 (decreased phosphorylation of Akt (S473)): 2E
# Procedure: as §1
# [7] = test system: mTOR signaling; assay: Western blot of mTOR signaling in H9C2 rat cardiomyocytes; type: cell-based; details: H9C2 cells; for time course of inhibition of mTOR signaling: 15 min to 8 hr, FIGS. 2C, 2E, 2F; for inhibition of mTOR signaling, dose-response: FIG. 2D
# Procedure: as §1
# [8] = test system: C57BL/6 mice; details: stated as known; cited from earlier work
# [9] = test system: H9C2 Cells; assay: Proliferation of H9C2 cells; type: cell-based, rat; details: FIGS. 6A & 6B
# [10] = 4 mM, FIG. 1A experiment, DMSO control 11.7
# [11] = 4 mM, FIG. 8 experiment, DMSO control 15.3
# [12] = 1 mM, FIG. 1C experiment, DMSO control 14.8
# [13] = 2 mM, FIG. 1C experiment, DMSO control 14.8
# [14] = 4 mM, FIG. 1C experiment, DMSO control 14.8
# [15] = 4 mM, FIG. 1B experiment, DMSO control 15.3
# [16] = 2 mM, FIG. 1B experiment, DMSO control 15.3
# [17] = after only 15 minutes treatment, FIG. 2C
molecule,measurement,setting,value
CCOC(=O)C(CC)(OCC)OC(C)=O (stereo not shown) [MJX002],activation of AMPK signaling pathway (phosphorylation of AMPK targets ACC (S79) and ULK1 (S555)),[1],activate the AMPK signaling pathway
same,M2 citrate using [U-13C6]glucose as a tracer,[2],decreased M2 citrate
same,"mTORC1 signaling (phosphorylation of mTORC1 targets S6K (T389), 4E-BP1 (S65), ULK1 (S757))",[3],no significant effect
same,mean lifespan,"[4]; 100 μM, FIG. 1A experiment, DMSO control 11.7",11.9
same,% increase (mean lifespan),"[4]; 100 μM, FIG. 1A experiment",1.9%
same,mean lifespan,"[4]; 300 μM, FIG. 1A experiment, DMSO control 11.7",13.2
same,% increase (mean lifespan),"[4]; 300 μM, FIG. 1A experiment",13.0%
same,mean lifespan,"[4]; 1 mM, FIG. 1A experiment, DMSO control 11.7",12.2
same,% increase (mean lifespan),"[4]; 1 mM, FIG. 1A experiment",4.2%
same,mean lifespan,[4]; [10],16.4
same,% increase (mean lifespan),"[4]; 4 mM, FIG. 1A experiment",40.0%
same,effect on C. elegans lifespan,[4],dose-dependent increases in lifespan
same,hair regrowth,"[5]; 6 week old C57BL/6 mice, 16 mM in Transdermal Gel on dorsal skin every other day",stimulates hair regrowth
same,skin pigmentation and hair growth,"[5]; C57BL/6 mice, 16 mM topical every other day, after 40 days, FIG. 7",accelerated pigmentation and hair growth
C/C=C1\OC(CCC(=O)OCC)(C(=O)OCC)OC1=O (stereo not shown) [MJX006],mTORC2 activity (phosphorylation of Akt (S473)),[6],inhibit mTORC1 and mTORC2 signaling
same,time course of inhibition of mTOR signaling,[7],exhibited similar kinetics; also recorded: only inhibited mTOR signaling transiently
same,time course of AMPK activation,[1],"highest at 15 and 30 minutes, is weaker but still evident at 1 hour, and has largely returned to baseline by 2 hours"
same,activation of AMPK signaling pathway (phosphorylation of AMPK targets ACC (S79) and ULK1 (S555)),[1],rapidly promote AMPK activity
same,"mTORC1 signaling (phosphorylation of mTORC1 targets S6K (T389), 4E-BP1 (S65), ULK1 (S757))",[3],inhibit mTORC1 and mTORC2 signaling
same,mean lifespan,"[4]; 1 mM, FIG. 8 experiment, DMSO control 15.3",16.2
same,% increase (mean lifespan),"[4]; 1 mM, FIG. 8 experiment",6.3%
same,mean lifespan,"[4]; 2 mM, FIG. 8 experiment, DMSO control 15.3",19.0
same,% increase (mean lifespan),"[4]; 2 mM, FIG. 8 experiment",24.2%
same,mean lifespan,[4]; [11],17.4
same,% increase (mean lifespan),"[4]; 4 mM, FIG. 8 experiment",13.9%
same,N2 C. elegans lifespan,"[4]; all three tested doses (1, 2, 4 mM), FIG. 8, result in words",extended significantly
C/C=C1\OC(C)OC1=O (stereo not shown) [MJX003],phosphorylation of T172 in AMPK,[1]; FIG. 2A,Increased phosphorylation
same,activation of AMPK signaling pathway (phosphorylation of AMPK targets ACC (S79) and ULK1 (S555)),[1],activate the AMPK signaling pathway
same,"mTORC1 signaling (phosphorylation of mTORC1 targets S6K (T389), 4E-BP1 (S65), ULK1 (S757))",[3],no significant effect
same,mean lifespan,[4]; [12],14.8
same,% increase (mean lifespan),"[4]; 1 mM, FIG. 1C experiment",−0.2%
same,mean lifespan,[4]; [13],12.5
same,% increase (mean lifespan),"[4]; 2 mM, FIG. 1C experiment",−15.3%
same,mean lifespan,[4]; [14],12.9
same,% increase (mean lifespan),"[4]; 4 mM, FIG. 1C experiment",−12.7%
same,effect on C. elegans lifespan,[4],decreased C. elegans lifespan
"α-ketobutyric acid (2-oxobutanoic acid) [aKB, reference compound]",hair loss in old C57BL/6 mice,[8],prevents hair loss
same,hair regrowth in mice,[8],stimulates hair regrowth
same,mean lifespan,[4]; [10],17.7
same,% increase (mean lifespan),"[4]; 4 mM, FIG. 1A experiment",51.0%
same,mean lifespan,[4]; [15],20.4
same,% increase (mean lifespan),"[4]; 4 mM, FIG. 1B experiment",33.3%
same,mean lifespan,[4]; [14],19.7
same,% increase (mean lifespan),"[4]; 4 mM, FIG. 1C experiment",33.3%
same,mean lifespan,[4]; [11],19.1
same,% increase (mean lifespan),"[4]; 4 mM, FIG. 8 experiment",24.6%
C/C=C(\OC(C)=O)C(=O)OCC [MJX001],activation of AMPK signaling pathway (phosphorylation of AMPK targets ACC (S79) and ULK1 (S555)),[1],activate the AMPK signaling pathway
same,"mTORC1 signaling (phosphorylation of mTORC1 targets S6K (T389), 4E-BP1 (S65), ULK1 (S757))",[3],no significant effect
same,mean lifespan,[4]; [12],12.9
same,% increase (mean lifespan),"[4]; 1 mM, FIG. 1C experiment",−12.9%
same,mean lifespan,[4]; [13],11.5
same,% increase (mean lifespan),"[4]; 2 mM, FIG. 1C experiment",−22.4%
same,mean lifespan,[4]; [14],11.1
same,% increase (mean lifespan),"[4]; 4 mM, FIG. 1C experiment",−24.8%
same,effect on C. elegans lifespan,[4],decreased C. elegans lifespan
C/C=c1\oc(=O)/c(=C/C)oc1=O [MJX004],time course of inhibition of mTORC2 (decreased phosphorylation of Akt (S473)),[6],"strongest after just 15 and 30 minutes treatment, but recovered to normal levels by 2 hr and beyond"
same,time course of inhibition of mTOR signaling,[7],less potent but more prolonged; also recorded: more prolonged effect on mTOR signaling
same,time course of AMPK activation,[1],less potent but more prolonged
same,activation of AMPK,"[1]; at 4 hr, FIG. 2E",strong activation of AMPK
same,activation of AMPK signaling pathway (phosphorylation of AMPK targets ACC (S79) and ULK1 (S555)),[1],activate the AMPK pathway
same,M2 citrate using [U-13C6]glucose as a tracer,[2],decreased M2 citrate
same,inhibition of mTORC1,"[3]; at 4 and 8 hr, FIG. 2E",sustained inhibition of mTORC1
same,"mTORC1 signaling (phosphorylation of mTORC1 targets S6K (T389), 4E-BP1 (S65), ULK1 (S757))",[3],inhibited mTORC1 signaling
same,mean lifespan,"[4]; 1 mM, FIG. 1B experiment, DMSO control 15.3",19.7
same,% increase (mean lifespan),"[4]; 1 mM, FIG. 1B experiment",28.7%
same,mean lifespan,[4]; [16],20.0
same,% increase (mean lifespan),"[4]; 2 mM, FIG. 1B experiment",30.9%
same,mean lifespan,[4]; [15],21.1
same,% increase (mean lifespan),"[4]; 4 mM, FIG. 1B experiment",38.0%
same,effect on C. elegans lifespan,[4],dose-dependent increases in lifespan
same,"effect on proliferation (inhibition), rank order",[9],strongest effect on proliferation
C/C=C1\OC(CC)(C(=O)OCC)OC1=O (stereo not shown) [MJX005],time course of inhibition of mTORC2 (decreased phosphorylation of Akt (S473)),[6],"strongest after just 15 and 30 minutes treatment, but recovered to normal levels by 2 hr and beyond"
same,mTORC2 activity (phosphorylation of Akt (S473)),[6],inhibits both mTORC1 and mTORC2 activity
same,"inhibition of mTOR signaling, dose-response",[7]; 0.8 mM or lower,no significant effect
same,"inhibition of mTOR signaling, dose-response",[7]; 1.6 mM,modest effect
same,"inhibition of mTOR signaling, dose-response",[7]; 3.2 mM,strong effect
same,time course of inhibition of mTOR signaling,[7],greatly diminished by 2 hr and largely absent at 4 hr and 8 hr; also recorded: only inhibited mTOR signaling transiently
same,inhibition of mTOR signaling,[7]; [17],inhibition of mTOR signaling
same,activation of AMPK compared with α-ketobutyrate,[1],more potent activation of AMPK than α-ketobutyrate
same,"activation of AMPK, dose-response",[1]; 0.8 mM or lower,no significant effect
same,"activation of AMPK, dose-response",[1]; 1.6 mM,modest effect
same,"activation of AMPK, dose-response",[1]; 3.2 mM,strong effect
same,time course of AMPK activation,[1],greatly diminished by 2 hr and largely absent at 4 hr and 8 hr
same,activation of AMPK,[1]; [17],strong activation of AMPK
same,activation of AMPK signaling pathway (phosphorylation of AMPK targets ACC (S79) and ULK1 (S555)),[1],activate the AMPK pathway
same,"mTORC1 signaling (phosphorylation of mTORC1 targets S6K (T389), 4E-BP1 (S65), ULK1 (S757))",[3],inhibited mTORC1 signaling; also recorded: inhibits both mTORC1 and mTORC2 activity
same,mean lifespan,[4]; [16],18.2
same,% increase (mean lifespan),"[4]; 2 mM, FIG. 1B experiment",19.1%
same,mean lifespan,[4]; [15],19.6
same,% increase (mean lifespan),"[4]; 4 mM, FIG. 1B experiment",27.7%
same,effect on C. elegans lifespan,[4],dose-dependent increases in lifespan
